Assay results from patent US4001414A, “1,3,4-Trimethyl-2-(3,4,5-trimethoxybenzyl)-1,2,5,6-tetrahydropyridine and analgesic composition and method using it” (priority 1974, dated 1977).

How the values were obtained:
[1] = tested on: acetic acid-induced writhing; assay: Analgesic activity, acetic acid-induced writhing technique; format: in vivo, albino I.C.R. Swiss mice; details: for No. of writhes (x ± M.S.E.): acetic acid 0.25 ml of 1% i.p. after 30 minutes, writhes counted in 20 minutes, p <0.001, control 112.2 ± 4.2, average value ± mean standard error; for analgesic activity (in words): as may be seen from Table B, mice
Experimental: The analgesic activity was investigated in albino I.C.R. Swiss mice, using the acetic acid-induced writhing technique. Groups each of 10 mice were assembled.
The analgesics were injected intraperitoneally, and after 30 minutes 0.25 ml of a 1% solution of acetic acid was injected intraperitoneally. A control group received only acetic acid. The numbers of writhes made by each mouse was counted in the 20 minutes following administration of the acetic acid.

[2] = Acute toxicity (LD50), i.p., method of Litchfield and Wilcoxon; details: mouse, in vivo, ip; I.C.R. Swiss mice, both sexes, 30 ± 2 g, intraperitoneal
Experimental: Acute toxicity studies were conducted in I.C.R. Swiss mice weighing 30 ± 2 g, of both sexes. The products were administered intraperitoneally (i.p.). The acute toxicity calculations were made by the method of Litchfield and Wilcoxon.

SMILES	No. of writhes (x ± M.S.E.) ([1]; 20 mg/kg i.p.)	analgesic activity (in words) ([1]; 20 mg/kg i.p.)	LD50 [2] [mg/kg]	No. of writhes (x ± M.S.E.) ([1]; 25 mg/kg i.p.)
COc1cc(CC2C(C)=C(C)CCN2C)cc(OC)c1OC (stereo not drawn) [Product I, 1,3,4-trimethyl-2-(3,4,5-trimethoxybenzyl)-1,2,5,6-tetrahydropyridine]	74.5 ± 4.84	have analgesic activity		
COc1cc(C[N+]2(C)CCC(C)=C(C)C2)cc(OC)c1OC.[Cl-] (stereo not drawn) [Product II, 1,3,4-trimethyl-1-(3,4,5-trimethoxybenzyl)-1,2,5,6-tetrahydropyridinium chloride]	53.6 ± 4.7	have analgesic activity	77	
CCC(=O)O[C@](Cc1ccccc1)(c1ccccc1)[C@H](C)CN(C)C [Dextropropoxyphene, reference compound]				22.8 ± 4.74
